Values of other authors as cited in PubChem BioAssay AID1259410 (Chemical Carcinogenesis Research Information System (CCRIS), 2018).

Test system: rodent tumor promotion studies, tumor incidence
Test: CCRIS tumor promotion studies

Question: With `CC(C)C[C@H]1C(=O)N2CCC[C@H]2[C@]2(O)O[C@](NC(=O)[C@@H]3C=C4c5cccc6[nH]c(Br)c(c56)C[C@H]4N(C)C3)(C(C)C)C(=O)N12` as the compound, how does the outcome (Carcinogen: 3-METHYLCHOLANTHRENE, 56-49-5, Doses [Carcinogen]: 1.5 MG IN TRICAPRYLIN ONCE, Doses [Promoter]: 0, 3 MG/KG/D IN 50% ETHANOL FOR 16 CONSECUTIVE DAYS BEGINNING 2 D PRIOR TO CARCINOGEN DOSE AND AGAIN FOR 14 D BEGINNING, Route [Carcinogen]: SUBCUTANEOUS, Route [Promoter]: SUBCUTANEOUS, Species: RAT, Strain/Sex: SPRAGUE-DAWLEY/MALE) read?
Answer: injection site: tumor

Question: What about the outcome (Carcinogen: N-METHYL-N'-NITRO-N-NITROSOGUANIDINE, 70-25-7, Doses [Carcinogen]: 40 ML OF A 50 UG/ML DEIONIZED WATER SOLUTION 1/2 D FOR 25 WK (AVERAGE TOTAL DOSE 170 MG), Doses [Promoter]: 0, 1, 2, MG/KG IN 0.1 ML/KG OLIVE OIL 1/2 D FOR 25 WK ADMINISTERED POST CARCINOGEN (STUDY DURATION: 52 WK), Doses [Promoter]: 0, 1, 2, MG/KG IN 0.1 ML/KG OLIVE OIL 1/2 D FOR 25 WK ADMINISTERED POST CARCINOGEN (STUDY DURATION: 52 WK), Route [Carcinogen]: ORAL, Route [Promoter]: SUBCUTANEOUS, Species: RAT, Strain/Sex: WISTAR/MALE) of the same compound?
Answer: glandular stomach: adenocarcinoma

Question: For `CCCC(C)C1(CC)C(=O)NC(=O)NC1=O` (stereo not given), which outcome (Carcinogen: N-NITROSODIETHYLAMINE, 55-18-5, Doses [Carcinogen]: 75 MG/KG BW IN 0.85% SALINE ONCE, Doses [Promoter]: 0, 485 PPM IN DIET FOR DURATION OF STUDY BEGINNING 2 WK POST CARCINOGEN DOSE (STUDY DURATION: 78 WK), Route [Carcinogen]: INTRAPERITONEAL, Route [Promoter]: ORAL, Species: RAT, Strain/Sex: F344/MALE) is on record?
Answer: liver: carcinoma, adenoma

Question: For `Oc1cccc(Cl)c1`, which outcome (Carcinogen: 7,12-DIMETHYLBENZ(A)ANTHRACENE, Doses [Carcinogen]: TOP, Route [Carcinogen]: DERMAL, Route [Promoter]: DERMAL, Species: MOUSE, Strain/Sex: FEMALE) is on record?
Answer: integumentary system (skin)

Question: Which outcome (Carcinogen: 7,12-DIMETHYLBENZ[A]ANTHRACENE, 57-97-6, Doses [Carcinogen]: 50 NMOL IN 200 µL ACETONE 2/WK FOR 16 WK, Doses [Promoter]: 0, 0.25, 0.5 NMOL IN 200 µL ACETONE APPLIED 1 HR PRIOR TO CARCINOGEN DOSES 2/WK FOR 16 WK (STUDY DURATION: 16 WK), Doses [Promoter]: 0, 0.25, 0.5 NMOL IN 200 µL ACETONE APPLIED 1 HR PRIOR TO CARCINOGEN DOSES 2/WK FOR 16 WK (STUDY DURATION: 16 WK), Route [Carcinogen]: DERMAL, Route [Promoter]: DERMAL, Species: MOUSE, Strain/Sex: CD-1/FEMALE) does the source give for `C=C1/C(=C\C=C2/CCC[C@]3(C)[C@@H]([C@H](C)CCCC(C)(C)O)CC[C@@H]23)C[C@@H](O)C[C@@H]1O` here?
Answer: skin: tumors

Question: And the outcome (Carcinogen: 7,12-DIMETHYLBENZ[A]ANTHRACENE, 57-97-6, Doses [Carcinogen]: 50 NMOL IN 200 µL ACETONE 2/WK FOR 16 WK, Doses [Promoter]: 0, 0.25 NMOL IN 200 µL ACETONE APPLIED 1 HR PRIOR TO AND 24 HR POST CARCINOGEN DOSES 2/WK FOR 16 WK (STUDY DURATION: 16, Route [Carcinogen]: DERMAL, Route [Promoter]: DERMAL, Species: MOUSE, Strain/Sex: CD-1/FEMALE)?
Answer: skin: tumors

Question: What about the outcome (Carcinogen: 7,12-DIMETHYLBENZ[A]ANTHRACENE, 57-97-6, Doses [Carcinogen]: 50 NMOL IN 200 µL ACETONE 2/WK FOR 16 WK, Doses [Promoter]: 0, 0.5 NMOL IN 200 µL ACETONE APPLIED 24 HR POST CARCINOGEN DOSES 2/WK FOR 16 WK (STUDY DURATION: 16 WK), Route [Carcinogen]: DERMAL, Route [Promoter]: DERMAL, Species: MOUSE, Strain/Sex: CD-1/FEMALE) of the same compound?
Answer: skin: tumors

Question: And the outcome (Carcinogen: N-METHYL-N'-NITRO-N-NITROSOGUANADINE, 70-25-7, Doses [Carcinogen]: 150 MG/L IN DRINKING WATER, Doses [Promoter]: 0, 2.5, 5 MG/KG IN DIET FOR DURATION OF STUDY BEGINNING 4 WK POST CARCINOGEN TREATMENT (STUDY DURATION: 32 WK), Doses [Promoter]: 0, 2.5, 5 MG/KG IN DIET FOR DURATION OF STUDY BEGINNING 4 WK POST CARCINOGEN TREATMENT (STUDY DURATION: 32 WK), Route [Carcinogen]: ORAL, Route [Promoter]: ORAL, Species: RAT, Strain/Sex: WISTAR/MALE)?
Answer: glandular stomach: adenocarcinoma

Question: What does the source list for `Oc1ccccc1O`?
Answer: outcome (Carcinogen: DIETHYLNITROSAMINE, 55-18-5, N-METHYL-N-NITROSOUREA, 684-93-5, 1,2-DIMETHYLHYDRAZINE, 540-73-8, N-BUTYL-N-(4-HYDRO, Carcinogen: DIETHYLNITROSAMINE, 55-18-5, N-METHYL-N-NITROSOUREA, 684-93-5, 1,2-DIMETHYLHYDRAZINE, 540-73-8, N-BUTYL-N-(4-HYDRO, Doses [Carcinogen]: 100 MG/KG BW DEN ONCE THEN 20 MG/KG BW MNU 1/D FOR 4 D FOLLOWED BY 40 MG/KG BW DMH 1/D FOR 4 D, 0.05% BHBN IN DRINKING W, Doses [Promoter]: 0, 0.8% IN DIET FOR 24 WK BEGINNING 3 D POST CARCINOGEN TREATMENT (STUDY DURATION: 28 WK), Route [Carcinogen]: INTRAPERITONEAL, INTRAPERITONEAL, SUBCUTANEOUS, ORAL, Route [Carcinogen]: INTRAPERITONEAL, INTRAPERITONEAL, SUBCUTANEOUS, ORAL, Route [Promoter]: ORAL, Species: RAT, Strain/Sex: F344/MALE): forestomach: papilloma, squamous cell carcinoma; glandular stomach: adenoma, ade; outcome (Carcinogen: DIETHYLNITROSAMINE, 55-18-5, N-METHYLNITROSOUREA, 684-93-5, 1,2-DIMETHYLHYDRAZINE, 540-73-8, N-BUTYL-N-(4-HYDROXYBUTYL)N, Carcinogen: DIETHYLNITROSAMINE, 55-18-5, N-METHYLNITROSOUREA, 684-93-5, 1,2-DIMETHYLHYDRAZINE, 540-73-8, N-BUTYL-N-(4-HYDROXYBUTYL)N, Doses [Carcinogen]: 100 MG/KG BW DEN ONCE FOLLOWED BY 20 MG/KG BW MNU 2/WK FOR 2 WK THEN 40 MG/KG BW DMH 2/WK FOR THE NEXT 2WK, 0.05% BBN IN, Doses [Promoter]: 0, 0.16% IN DIET FOR 24 WK BEGINNING POST CARCINOGEN TREATMENT (STUDY DURATION: 28 WK), Route [Carcinogen]: INTRAPERITONEAL, INTRAPERITONEAL, SUBCUTANEOUS, ORAL, Route [Carcinogen]: INTRAPERITONEAL, INTRAPERITONEAL, SUBCUTANEOUS, ORAL, Route [Promoter]: ORAL, Species: RAT, Strain/Sex: F344/MALE): forestomach: papilloma; outcome (Carcinogen: DIETHYLNITROSAMINE, 55-18-5, N-METHYLNITROSOUREA, 684-93-5, DIHYDROXY-DI-N- PROPYLNITROSAMINE, 53609-64-6, Carcinogen: DIETHYLNITROSAMINE, 55-18-5, N-METHYLNITROSOUREA, 684-93-5, DIHYDROXY-DI-N- PROPYLNITROSAMINE, 53609-64-6, Doses [Carcinogen]: 100 MG/KG/BW DEN ONCE AT BEGINNING OF STUDY THEN 20 MG/KG/BW MNU ONCE ON D 2, 5, 8 AND 11 OF STUDY FOLLOWED BY 0.1% DHPN, Doses [Promoter]: 0, 0.8% IN DIET BEGINNING POST CARCINOGEN TREATMENT AND CONTINUING FOR DURATION OF STUDY (STUDY DURATION: 20 WK), Route [Carcinogen]: INTRAPERITONEAL, INTRAPERITONEAL, ORAL, Route [Carcinogen]: INTRAPERITONEAL, INTRAPERITONEAL, ORAL, Route [Promoter]: ORAL, Species: RAT, Strain/Sex: F344/MALE): forestomach: squamous cell papilloma; outcome (Carcinogen: METHYL-N-AMYLNITROSAMINE, 13256-07-0, Doses [Carcinogen]: 25 MG/KG AT WK 0, WK 1, AND WK 2 (TOTAL 3 TREATMENTS), Doses [Promoter]: 0, 0.8% IN DIET FOR 49 WK BEGINNING 1 WK POST CARCINOGEN DOSE (STUDY DURATION: 5 WK), Route [Carcinogen]: INTRAPERITONEAL, Route [Promoter]: ORAL, Species: RAT, Strain/Sex: F344/MALE): tongue: papilloma; esophagus: carcinoma; outcome (Carcinogen: N-METHYL-N'-NITRO-N-NITROSOGUANIDINE, 70-25-7, Doses [Carcinogen]: 150 MG/KG ONCE, Doses [Promoter]: 0, 0.8% IN DIET BEGINNING 1 WK POST CARCINOGEN DOSE (STUDY DURATION: 52 WK), Route [Carcinogen]: GAVAGE, Route [Promoter]: ORAL, Species: RAT, Strain/Sex: F344): forestomach: carcinoma; glandular stomach: adenocarcinoma; outcome (Carcinogen: N-METHYL-N-NITROSOUREA, 684-93-5, Doses [Carcinogen]: 120 PPM IN DRINKING WATER FOR 1-WK PERIODS EVERY OTHER WEEK FOR A TOTAL OF 3 WK OF TREATMENT, Doses [Promoter]: 0, 0.05, 0.2, 0.8% IN DIET FOR 30 WK BEGINNING POST CARCINOGEN TREATMENT (STUDY DURATION: 35 WK), Doses [Promoter]: 0, 0.05, 0.2, 0.8% IN DIET FOR 30 WK BEGINNING POST CARCINOGEN TREATMENT (STUDY DURATION: 35 WK), Route [Carcinogen]: ORAL, Route [Promoter]: ORAL, Species: MOUSE, Strain/Sex: BALB/MALE): glandular stomach: adenoma; outcome (Carcinogen: N-METHYL-N-NITROSOUREA, 684-93-5, Doses [Carcinogen]: 120 PPM IN DRINKING WATER FOR 1-WK PERIODS EVERY OTHER WK FOR A TOTAL OF 3 WK OF TREATMENT, Doses [Promoter]: 0, 0.8% IN DIET FOR 30 WK BEGINNING POST CARCINOGEN TREATMENT (STUDY DURATION: 35 WK), Route [Carcinogen]: ORAL, Route [Promoter]: ORAL, Species: MOUSE, Strain/Sex: BALB/MALE): glandular stomach: adenocarcinoma
